Experiment [1] deals with T1, Akt1 (Homo sapiens, UniProt P31749).
T1 construct: purchased life technology lot11629928C (lot number only, catalogue number not given)
Description: Akt1 kinase inhibition, LANCE TR-FRET. It counts as biochemical. The method, then:
(§1) Study 1: The Inhibitory Effect of the Compounds on the Activity of Akt1, Akt2 and Akt3
Akt1 protein (life technology # lot11629928C)
(§2) In this experiment, a homogeneous time-resolved fluorescence […] energy transfer (LANCE TR-FRET®) method was used. In the assay plate, enzymes, biotinylated polypeptide substrates and compound to be tested were mixed, and ATP was added to initiate the reaction and the mixture was incubated. After that, EDTA was added to terminate the reaction while an Eu-labeled antibody was added to carry out the reaction and the reaction was then detected. The assay plate was analyzed by PE company's Envision, and the analysis mode was TR-FRET. The data were represented by fluorescence signals at 665 nm and 615 nm, respectively.
(§3) Compound formulation: compound to be tested and the reference compound were diluted with 100% DMSO, the initial concentration of the compound was 10 uM, and diluted by 10 times in a 3-fold gradient. Transfer the compound to the cell plate and duplicate each well.
(§4) Kinase assay: the enzyme and substrate were mixed with different concentrations of pre-diluted compounds. […] Leave at room temperature for 15 min and diplicate each concentration. ATP was added, and the final concentrations were 36 uM, 360 uM and 160 uM in Akt1, Akt2, and Akt3 kinase reactions, respectively, and the reaction was carried out for 90 min at room temperature (in which negative and positive controls were set). After the reaction was completed, the antibody was added and the mixture was detected, and the cells were incubated for 60 min at room temperature, and then collected by Evnvision. Data analysis and fitting according to *Lfit5 software.

Experiment [2] concerns the target T2, Akt2 (Homo sapiens, UniProt P31751).
T2 construct: purchased life technology lot 28870GG (lot number only, catalogue number not given)
Put plainly: Akt2 kinase inhibition, LANCE TR-FRET. As to conditions: Akt2 2 nM, ATP 360 uM, 90 min at room temperature. It counts as biochemical. The method, then:
as §1
Akt2 protein (life technology # lot 28870GG)
as §2, §3, §4

Experiment [3] concerns the target T3, Akt3 (Homo sapiens, UniProt Q9Y243).
T3 construct: purchased life technology lot 1715050B (lot number only, catalogue number not given)
Description: Akt3 kinase inhibition, LANCE TR-FRET. It counts as biochemical. As to conditions: Akt3 2 nM, ATP 160 uM, 90 min at room temperature. As for the experimental part:
as §1
Akt3 protein (life technology # lot 1715050B)
as §2, §3, §4

In experiment [4] the test system is LNCaP cells. Put plainly: LNCaP cell activity, CellTiter-Glo live cell detection. The note with it: Homo sapiens, 72 h, 1000 cells per well, incubated 3 days, starting concentration 10 uM. Type of experiment: cell-based. The method, then: Study 2: inhibitory effects of compounds on LNCaP cell activity
The amount of ATP directly reflects the number and the state of the cells, and the number of live cells can be detected by quantitatively measuring ATP. The live cell assay kit contains luciferase and its substrate. Through the participation of ATP, luciferase can catalyze the substrate, emit a stable optical signal, and the amount of ATP in the cell was determined by detecting the intensity of the signal. Wherein, the optical signal is proportional to the amount of ATP in the cell, and ATP is positively correlated with the number of live cells, so that the cell proliferation can be detected. The assay board is analyzed by PE company's Envision.
LNCaP cell was separately seeded in a 384-well plate, each well contains 1000 cells. The cell plate was placed in a carbon dioxide incubator and incubated overnight.
A duplicated experiment was performed with 10 concentrations of compound in a 3-fold dilution with Bravo.
Compound was transferred to the cell plate with a starting concentration of 10 uM. The cell plate was incubated in a carbon dioxide incubator for 3 days.
The Promega CellTiter-Glo reagent was added to the cell plate and incubated for 10 min at room temperature to stabilize the optical signal. Read the data by a PerkinElmer Envision multi-label analyzer.

Structures are written as SMILES. Some results are limits rather than exact numbers.

T1 sequence (P31749 whole entry): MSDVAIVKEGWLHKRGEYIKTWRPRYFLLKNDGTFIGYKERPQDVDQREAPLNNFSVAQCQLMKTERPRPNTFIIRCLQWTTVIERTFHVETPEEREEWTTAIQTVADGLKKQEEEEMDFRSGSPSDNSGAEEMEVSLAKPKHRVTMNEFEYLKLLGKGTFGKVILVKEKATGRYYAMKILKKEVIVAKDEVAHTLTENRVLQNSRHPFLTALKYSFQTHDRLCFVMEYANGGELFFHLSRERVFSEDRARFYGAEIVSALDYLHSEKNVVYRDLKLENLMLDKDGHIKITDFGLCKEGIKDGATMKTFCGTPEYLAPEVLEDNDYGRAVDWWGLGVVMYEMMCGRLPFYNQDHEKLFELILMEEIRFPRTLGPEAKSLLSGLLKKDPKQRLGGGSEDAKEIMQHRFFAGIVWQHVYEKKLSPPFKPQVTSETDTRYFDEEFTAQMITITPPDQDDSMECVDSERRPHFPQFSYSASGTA
T3 sequence (Q9Y243 whole entry): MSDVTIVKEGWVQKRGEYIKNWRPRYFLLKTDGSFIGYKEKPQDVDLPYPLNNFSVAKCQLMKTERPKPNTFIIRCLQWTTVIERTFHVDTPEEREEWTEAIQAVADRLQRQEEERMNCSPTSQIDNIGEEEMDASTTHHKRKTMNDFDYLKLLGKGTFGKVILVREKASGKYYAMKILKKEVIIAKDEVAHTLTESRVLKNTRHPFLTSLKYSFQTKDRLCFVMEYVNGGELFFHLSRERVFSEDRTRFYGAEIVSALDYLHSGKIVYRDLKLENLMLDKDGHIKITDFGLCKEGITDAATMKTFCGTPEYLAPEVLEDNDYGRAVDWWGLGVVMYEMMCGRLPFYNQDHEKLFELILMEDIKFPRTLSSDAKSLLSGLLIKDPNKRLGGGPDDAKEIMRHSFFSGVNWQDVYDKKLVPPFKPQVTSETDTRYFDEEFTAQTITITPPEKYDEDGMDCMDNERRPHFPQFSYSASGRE
T2 sequence (P31751 whole entry): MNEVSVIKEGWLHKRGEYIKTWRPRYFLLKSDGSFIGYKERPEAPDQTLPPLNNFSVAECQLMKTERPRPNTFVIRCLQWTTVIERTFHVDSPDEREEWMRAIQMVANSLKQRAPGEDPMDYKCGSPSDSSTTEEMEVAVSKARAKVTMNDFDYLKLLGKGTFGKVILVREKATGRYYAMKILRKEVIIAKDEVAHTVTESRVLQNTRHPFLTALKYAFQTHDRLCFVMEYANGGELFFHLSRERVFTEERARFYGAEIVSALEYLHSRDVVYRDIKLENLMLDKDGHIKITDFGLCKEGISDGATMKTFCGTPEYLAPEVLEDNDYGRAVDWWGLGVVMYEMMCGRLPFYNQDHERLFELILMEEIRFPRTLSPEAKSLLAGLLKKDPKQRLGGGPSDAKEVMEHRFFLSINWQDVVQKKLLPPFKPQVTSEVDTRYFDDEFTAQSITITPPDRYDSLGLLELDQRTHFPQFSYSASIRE

Turning to `NC[C@H](Cc1cccc(Cl)c1)NC(=O)c1cc2c(s1)CCCn1ncc(Cl)c1-2` [Embodiment 4], the IC50 in experiment [1] was 0.6 nM; in experiment [2], 32 nM; in experiment [3] it was 40 nM; in experiment [4], 182 nM.
Taken in the same sequence, the figures for `Cc1cnn2c1-c1cc(C(=O)N[C@H](CN)Cc3ccc(F)c(F)c3)sc1CCC2` [Embodiment 35] were 0.43 nM, 22 nM, 34 nM and 150 nM.
Taken in the same sequence, the figures for `NC[C@H](Cc1cc(F)cc(F)c1)NC(=O)c1cc2c(s1)CCCn1ncc(Br)c1-2` [Embodiment 19] were 0.03 nM, 8 nM, 8.7 nM and 23 nM.
With `NC[C@H](Cc1cccc(F)c1)NC(=O)c1cc2c(s1)CCCn1ncc(C(F)(F)F)c1-2` [Embodiment 27], the IC50 in experiment [1] amounted to 14.7 nM; in experiment [2], 304 nM; in experiment [3] it was 119 nM; in experiment [4], 971 nM.
The corresponding values for `NC[C@H](Cc1cccc(F)c1)NC(=O)c1cc2c(s1)CCCn1ncc(Cl)c1-2` [Embodiment 1] are 0.36 nM, 24 nM, 21 nM and 58 nM.
With `NC[C@H](Cc1ccncc1)NC(=O)c1cc2c(s1)CCCn1ncc(Cl)c1-2` [Embodiment 3], the IC50 in experiment [1] worked out at 39 nM; in experiment [2] it was 163 nM; in experiment [3] it was 1130 nM; in experiment [4], 2010 nM.
The corresponding values for `NC[C@H](Cc1ccccc1F)NC(=O)c1cc2c(s1)CCCn1ncc(Cl)c1-2` [Embodiment 6] are 3.78 nM, 101 nM, 95 nM and 297 nM.
Consider `NC[C@H](Cc1ccc(F)c(F)c1)NC(=O)c1cc2c(s1)OCCn1ncc(Cl)c1-2` [Embodiment 38], for which the IC50 stood at 0.36 nM in experiment [1], 57 nM in experiment [2], 68 nM in experiment [3] and 118 nM in experiment [4].
The corresponding values for `NC[C@H](Cc1ccc(F)c(F)c1)NC(=O)c1cc2c(s1)CCCn1ncc(Br)c1-2` [Embodiment 18] are 0.27 nM, 8 nM, 10 nM and 77 nM.
Take `NC[C@H](Cc1cc(F)cc(F)c1)NC(=O)c1cc2c(s1)OCCn1ncc(Br)c1-2` [Embodiment 41]: the IC50 in experiment [1] turned out to be 1.45 nM; in experiment [2], 39 nM; in experiment [3], 57 nM; in experiment [4], 62 nM.
The corresponding values for `NC[C@H](Cc1ccc(Cl)c(Cl)c1)NC(=O)c1cc2c(s1)CCCn1ncc(Cl)c1-2` [Embodiment 9] are 1.39 nM, 25 nM, 44 nM and 236 nM.
As to `NC[C@H](Cc1cc(F)ccc1F)NC(=O)c1cc2c(s1)CCCn1ncc(Br)c1-2` [Embodiment 17], the IC50 in experiment [1] amounted to 0.68 nM; in experiment [2] it was 38 nM; in experiment [3], 41 nM; in experiment [4] it was 230 nM.
The corresponding values for `Cc1cnn2c1-c1cc(C(=O)N[C@H](CN)Cc3cc(F)cc(F)c3)sc1OCC2` [Embodiment 40] are 0.87 nM, 66 nM, 170 nM and 87 nM.
Turning to `NC[C@H](Cc1ccc(F)c(F)c1)NC(=O)c1cc2c(s1)OCCn1ncc(Br)c1-2` [Embodiment 37], the IC50 in experiment [1] is 1.73 nM; in experiment [2], 35 nM; in experiment [3], 29 nM.
In the case of `NC[C@H](Cc1cccc(F)c1)NC(=O)c1cc2c(s1)CCCn1ncc(F)c1-2` [Embodiment 28], the IC50 in experiment [1] stood at 33.3 nM; in experiment [2], 589 nM; in experiment [3], 286 nM; in experiment [4] it was 1420 nM.
Taken in the same sequence, the figures for `NC[C@H](Cc1cccc(F)c1)NC(=O)c1cc2c(s1)CCCn1ncc(-c3ccccc3)c1-2` [Embodiment 23] were 8.84 nM, 372 nM, 52 nM and 1340 nM.
The corresponding values for `NC[C@H](Cc1cccc(F)c1)NC(=O)c1cc2c(s1)C(=O)CCn1ncc(Cl)c1-2` [Embodiment 31] are 124 nM, 3130 nM, 819 nM and 5710 nM.
Turning to `Cc1cnn2c1-c1cc(C(=O)N[C@H](CN)Cc3cccc(F)c3)sc1CCC2` [Embodiment 22], the IC50 in experiment [1] was found to be 2.18 nM; in experiment [2], 26 nM; in experiment [3], 60 nM; in experiment [4], 61 nM.
Consider `NC[C@H](Cc1cccc(F)c1)NC(=O)c1cc2c(s1)C(F)(F)CCn1ncc(Cl)c1-2` [Embodiment 33], for which the IC50 in experiment [1] was found to be 13 nM; in experiment [2], 490 nM; in experiment [3], 108 nM; in experiment [4], 1750 nM.
The corresponding values for `CNC[C@H](Cc1cccc(F)c1)NC(=O)c1cc2c(s1)CCCn1ncc(Cl)c1-2` [Embodiment 34] are 36 nM, 983 nM, 513 nM and 2360 nM.
The corresponding values for `NC[C@H](Cc1ccc(Cl)cc1)NC(=O)c1cc2c(s1)CCCn1ncc(Cl)c1-2` [Embodiment 8] are 3.62 nM, 107 nM, 69 nM and 534 nM.
Taken in the same sequence, the figures for `NC[C@H](Cc1cccc(C(F)(F)F)c1)NC(=O)c1cc2c(s1)CCCn1ncc(Cl)c1-2` [Embodiment 11] were 2.28 nM, 66 nM, 80 nM and 287 nM.
With `NC[C@H](Cc1cccc(F)c1)NC(=O)c1cc2c(s1)C(O)CCn1ncc(Cl)c1-2` (some centres unmarked) [Embodiment 32], the IC50 in experiment [1] was 117 nM; in experiment [2] it was 2930 nM; in experiment [3] it was 814 nM; in experiment [4] it was greater than 10000 nM.
The corresponding values for `NC[C@H](Cc1ccc(F)c(F)c1)NC(=O)c1cc2c(o1)CCCn1ncc(Cl)c1-2` [Embodiment 21] are 13.3 nM, 312 nM, 98 nM and 615 nM.
Taken in the same sequence, the figures for `N#Cc1cnn2c1-c1cc(C(=O)N[C@H](CN)Cc3ccc(F)c(F)c3)sc1OCC2` [Embodiment 42] were 27.5 nM, 900 nM, 416 nM and 663 nM.
Taken in the same sequence, the figures for `NC[C@H](Cc1ccccc1C(F)(F)F)NC(=O)c1cc2c(s1)CCCn1ncc(Cl)c1-2` [Embodiment 10] were 0.63 nM, 17 nM, 29 nM and 159 nM.
Consider `COC1CCn2ncc(Cl)c2-c2cc(C(=O)N[C@H](CN)Cc3cccc(F)c3)sc21` (some centres unmarked) [Embodiment 30], for which the IC50 in experiment [1] worked out at 12.4 nM; in experiment [2] it was 281 nM; in experiment [3] it was 485 nM; in experiment [4] it was 654 nM.
Taken in the same sequence, the figures for `NC[C@H](Cc1ccccn1)NC(=O)c1cc2c(s1)CCCn1ncc(Br)c1-2` [Embodiment 20] were 11 nM, 428 nM, 374 nM and 487 nM.
As to `CN(C)C[C@H](Cc1cccc(F)c1)NC(=O)c1cc2c(s1)CCCn1ncc(Cl)c1-2` [Embodiment 12], the concentration for half-maximal inhibition (IC50) in experiment [1] amounted to 116 nM; in experiment [2] it was 4830 nM; in experiment [3], 867 nM; in experiment [4] it was 4890 nM.
The corresponding values for `NC[C@H](Cc1ccc(F)c(F)c1)NC(=O)c1cc2c(s1)CCCn1ncc(Cl)c1-2` [Embodiment 7] are 0.71 nM, 19 nM, 24 nM and 59 nM.

Source of the values: patent US10654868B2, “Dihydropyrazole azepine compound serving as Akt inhibitor” (HARBIN ZHENBAO PHARMACEUTICAL CO., LTD., priority 2016, dated 2020).
